Values joined by “and” are separate entries in the source; they are usually repeats but may differ in a detail not shown here. Equal values may be shown once.
Columns and labels:
[1] = Metabolic stability, rat liver microsomes (phase I and II)
Experimental: Mouse, rat, and pooled human liver microsomes were purchased from a commercial source (Corning) and stored at -80 °C. NADPH generating system solutions A and B and UGT reaction mix solutions A and B (Corning) were kept at -20°C. The test compound and the reference compounds diclofenac (MW […]
microsomal stability assay was carried out based on the BD Biosciences Guidelines for Use (TF000017 Rev1.0) with minor adaptations. Metabolic stability of the compounds was studied through the CYP450 superfamily (phase I metabolism) by fortification with reduced nicotinamide adenine dinucleotide phosphate (NADPH) and through uridine glucuronosyl-transferase (UGT) enzymes (phase II metabolism) by fortification with uridine diphosphate glucuronic acid (UDPGA). For the CYP450 and other NADPH dependent enzymes, both compounds were incubated at 5 µM together with 0.5 mg mL-1 liver microsomes in potassium phosphate buffer in a reaction started by the addition of 1 mM NADPH […]
At these time points, 20 µL was withdrawn from the reaction mixture and 80 µL cold acetonitrile (ACN) containing the internal standard tolbutamide, was added to inactivate the enzymes and precipitate the proteins. The mixture was vortexed for 30 s and centrifuged at 4 °C for 5 min at 15,000 rpm. The supernatant was stored at -80°C until analysis. For the UGT enzymes, both compounds were incubated at 5 µM together with 0.5 mg mL-1 liver microsomes in a reaction started by the addition of 2 mM UDPGA cofactor. The corresponding loss of parent compound was determined using liquid chromatography (UPLC) (Waters AquityTM) coupled with tandem quadrupole mass spectrometry (MS²) (Waters XevoTM), equipped with an electrospray ionization (ESI) interface and operated in multiple reaction monitoring (MRM) mode. […]

[2] = system: T. b. brucei AnTAR1.1 PPYRE9; assay: Mouse model of stage 2 HAT (BLI, parasitaemia, SL-RNA qPCR); type: in vivo; conditions: for BLI of the head region, RLU data: individual animals
Experimental: […] Treatment was initiated at 21 dpi. […] Mice were injected i.p. with […] of D-luciferin and anaesthetised using isoflurane. The luminescent signal was acquired from both the dorsal and ventral side of the animals. […] Animals subjected to the different treatment schemes (from 4 wpi) were additionally imaged over a 5 min exposure time for enhanced sensitivity. […] Tissues were weighed and RNA was extracted using the RNeasy Plus Mini Kit (Qiagen) according to the manufacturer’s recommendations. […] A list of primers used is provided in the Supplementary Methods section of the Supplementary Information. BLI images from the IVIS Spectrum In Vivo Imaging System (Perkin Elmer) were analysed using LivingImage v4.3.1. SoftWoRx suite 2.0 for microscopy (image deconvolution), then processing using the Fiji software.

[3] = system: AT1-KO T. b. brucei strain (derived from BS221); assay: Susceptibility assay, TbAT1-KO (derived from BS221); type: cell-based, Trypanosoma brucei brucei
Experimental: Susceptibility assays with NY-SM[51], BS221[48] and TbAT1-KO[48] (derived from BS221) cells were performed using 10 concentrations of a 4-fold compound dilution series starting at 64 µM. Parasites were seeded at 4 × 10^3 parasites per well and exposed to drug compound for 72 h, after which resazurin (final concentration of 10 µg mL^−1) was added to the plates. Fluorescence intensities were determined after 6 h.

[4] = oral 6.25 mg kg^−1 s.i.d. for 5 days
[5] = oral 12.5 mg kg^−1 s.i.d. for 5 days
[6] = oral 25 mg kg^−1 s.i.d. for 5 days

For `Nc1ncnc2c1ccn2[C@@H]1O[C@H](CO)C[C@H]1O` [Compound 9, 3’-deoxytubercidin], which “% analogue remaining, EXP 1 / EXP 2” value ([1]; microsomes, 0 min, 5 µM) is on record?
Its value is 100%.

And the “% analogue remaining, Mean” value ([1]; microsomes, 0 min, 5 µM)?
Its value is 100%.

What about the metabolic stability ([1]; s9, 0.5 h) of the same compound?
The metabolic stability was “metabolically stable”.

What about the “RLU data, individual mice” value ([2]; 6.25 mg/kg SID, 3 wpi) of the same compound?
Its value is 1622000 RLU and 3182000 RLU and 2182000 RLU.

What about the “RLU data, individual mice” value ([2]; 6.25 mg/kg SID, 4 wpi) of the same compound?
Its value is 193100 RLU and 167700 RLU and 117800 RLU.

And the “RLU data, individual mice” value ([2]; 6.25 mg/kg SID, 5 wpi)?
Its value is 198100 RLU and 192400 RLU and 180700 RLU.

And the “RLU data, individual mice” value ([2]; 6.25 mg/kg SID, 6 wpi)?
Its value is 97950 RLU and 93770 RLU and 90330 RLU.

What about the “RLU data, individual mice” value ([2]; 6.25 mg/kg SID, 7 wpi) of the same compound?
The value was 113500 RLU and 105600 RLU and 105900 RLU.

What about the “RLU data, individual mice” value ([2]; 6.25 mg/kg SID, 8 wpi) of the same compound?
Its value is 131900 RLU and 113000 RLU and 102800 RLU.

And the “RLU data, individual mice” value ([2]; 6.25 mg/kg SID, 9 wpi)?
The value was 108500 RLU and 102400 RLU and 89250 RLU.

What about the “RLU data, individual mice” value ([2]; 6.25 mg/kg SID, 11 wpi) of the same compound?
Its value is 85510 RLU and 79310 RLU and 77130 RLU.

And the “RLU data, individual mice” value ([2]; 6.25 mg/kg SID, 12 wpi)?
The value was 86540 RLU and 80590 RLU and 72940 RLU.

What about the “RLU data, individual mice” value ([2]; 6.25 mg/kg SID, 14 wpi) of the same compound?
The value was 72880 RLU and 70430 RLU and 75490 RLU.

And the “RLU data, individual mice” value ([2]; 12.5 mg/kg SID, 3 wpi)?
Its value is 11680000 RLU and 7405000 RLU.

What about the “RLU data, individual mice” value ([2]; 12.5 mg/kg SID, 4 wpi) of the same compound?
The value was 129800 RLU and 121500 RLU.

What about the “RLU data, individual mice” value ([2]; 12.5 mg/kg SID, 5 wpi) of the same compound?
The value was 117000 RLU and 123200 RLU.

And the “RLU data, individual mice” value ([2]; 12.5 mg/kg SID, 6 wpi)?
Its value is 100200 RLU and 88860 RLU.

What about the “RLU data, individual mice” value ([2]; 12.5 mg/kg SID, 7 wpi) of the same compound?
The value was 107000 RLU and 110100 RLU.

What about the “RLU data, individual mice” value ([2]; 12.5 mg/kg SID, 8 wpi) of the same compound?
The value was 112000 RLU and 128000 RLU.

What about the “RLU data, individual mice” value ([2]; 12.5 mg/kg SID, 9 wpi) of the same compound?
The value was 99900 RLU and 94080 RLU.

What about the “RLU data, individual mice” value ([2]; 12.5 mg/kg SID, 11 wpi) of the same compound?
The value was 77540 RLU and 81340 RLU.

What about the “RLU data, individual mice” value ([2]; 12.5 mg/kg SID, 12 wpi) of the same compound?
The value was 79330 RLU and 83380 RLU.

What about the “RLU data, individual mice” value ([2]; 12.5 mg/kg SID, 14 wpi) of the same compound?
Its value is 72090 RLU and 77840 RLU.

What about the “RLU data, individual mice” value ([2]; 25 mg/kg BID, 3 wpi) of the same compound?
Its value is 4672000 RLU and 30200000 RLU.

And the “RLU data, individual mice” value ([2]; 25 mg/kg BID, 4 wpi)?
The value was 134400 RLU and 112900 RLU.

And the “RLU data, individual mice” value ([2]; 25 mg/kg BID, 5 wpi)?
Its value is 112900 RLU and 115900 RLU.

What about the “RLU data, individual mice” value ([2]; 25 mg/kg BID, 6 wpi) of the same compound?
The value was 102800 RLU and 99010 RLU.

What about the “RLU data, individual mice” value ([2]; 25 mg/kg BID, 7 wpi) of the same compound?
Its value is 102400 RLU and 91660 RLU.

What about the “RLU data, individual mice” value ([2]; 25 mg/kg BID, 8 wpi) of the same compound?
Its value is 110100 RLU and 102600 RLU.

And the “RLU data, individual mice” value ([2]; 25 mg/kg BID, 9 wpi)?
Its value is 102800 RLU and 96280 RLU.

What about the “RLU data, individual mice” value ([2]; 25 mg/kg BID, 11 wpi) of the same compound?
Its value is 72280 RLU and 73020 RLU.

What about the “RLU data, individual mice” value ([2]; 25 mg/kg BID, 12 wpi) of the same compound?
The value was 82420 RLU and 78930 RLU.

What about the “RLU data, individual mice” value ([2]; 25 mg/kg BID, 14 wpi) of the same compound?
The value was 77680 RLU and 76600 RLU.

What about the “RLU data, individual mice” value ([2]; 25 mg/kg SID, 3 wpi) of the same compound?
Its value is 2495000 RLU and 617400 RLU and 13720000 RLU.

And the “RLU data, individual mice” value ([2]; 25 mg/kg SID, 4 wpi)?
Its value is 173900 RLU and 151500 RLU and 120200 RLU.

And the “RLU data, individual mice” value ([2]; 25 mg/kg SID, 5 wpi)?
The value was 135900 RLU and 123400 RLU and 110100 RLU.

And the “RLU data, individual mice” value ([2]; 25 mg/kg SID, 6 wpi)?
The value was 109500 RLU and 97640 RLU and 94120 RLU.

And the “RLU data, individual mice” value ([2]; 25 mg/kg SID, 7 wpi)?
The value was 98810 RLU and 105800 RLU and 87010 RLU.

What about the “RLU data, individual mice” value ([2]; 25 mg/kg SID, 8 wpi) of the same compound?
Its value is 114800 RLU and 132100 RLU and 110100 RLU.

What about the “RLU data, individual mice” value ([2]; 25 mg/kg SID, 9 wpi) of the same compound?
The value was 104700 RLU and 110500 RLU and 91280 RLU.

And the “RLU data, individual mice” value ([2]; 25 mg/kg SID, 11 wpi)?
Its value is 73650 RLU and 88470 RLU and 81640 RLU.

And the “RLU data, individual mice” value ([2]; 25 mg/kg SID, 12 wpi)?
The value was 90290 RLU and 88590 RLU and 87820 RLU.

And the “RLU data, individual mice” value ([2]; 25 mg/kg SID, 14 wpi)?
The value was 78620 RLU and 86010 RLU and 72810 RLU.

And the “BLI of the head region, RLU data” value ([2]; 3 wpi (start of treatment, 21 dpi))?
Its value is 48700000 RLU and 33400000 RLU.

And the “BLI of the head region, RLU data” value ([2]; 4 wpi)?
Its value is 98400 RLU and 114000 RLU.

And the “BLI of the head region, RLU data” value ([2]; 5 wpi)?
The value was 100000 RLU and 105000 RLU.

And the “BLI of the head region, RLU data” value ([2]; 6 wpi)?
The value was 109000 RLU and 110000 RLU.

And the “BLI of the head region, RLU data” value ([2]; 7 wpi)?
The value was 99500 RLU and 92000 RLU.

What about the “BLI of the head region, RLU data” value ([2]; 8 wpi) of the same compound?
The value was 107000 RLU and 96700 RLU.

And the “BLI of the head region, RLU data” value ([2]; 9 wpi)?
The value was 90800 RLU and 104000 RLU.

What about the “BLI follow-up of surviving mice up to 14 wpi” value ([2]; mouse, in vivo) of the same compound?
The value was “did not reveal any signs of relapse”.

What about the “bioluminescent imaging (BLI)” value [2, 4] of the same compound?
Its value is “total clearance in all organs including the CNS”.

What about the “blood parasitaemia up to 9 wpi” value [2, 4] of the same compound?
Its value is “negative blood parasitaemia”.

What about the “bioluminescent imaging (BLI)” value [2, 5] of the same compound?
Its value is “total clearance in all organs including the CNS”.

And the “blood parasitaemia up to 9 wpi” value [2, 5]?
The value was “negative blood parasitaemia”.

And the “bioluminescent imaging (BLI)” value ([2]; oral 25 mg kg^−1 b.i.d. for 5 days)?
The value was “total clearance of all organs, including the CNS”.

What about the “blood parasitaemia and survival at 9 wpi” value ([2]; oral 25 mg kg^−1 b.i.d. for 5 days from 21 dpi) of the same compound?
Its value is “negative blood parasitaemia and survived the pre-set endpoint”.

And the “bioluminescent imaging (BLI)” value [2, 6]?
The value was “total clearance in all organs including the CNS”.

And the “blood parasitaemia up to 9 wpi” value [2, 6]?
The value was “negative blood parasitaemia”.

And the “parasite burdens in brain, spleen and fat by SL-RNA qPCR” value ([2]; tissues collected at 121 dpi)?
The value was “complete absence of parasite burdens”.

What about the “luminescent signal in the head region” value ([2]; to levels similar to a non-infected control mouse) of the same compound?
The value was “rapid decline of the signal”.

What about the “Inhibition (%)” value ([3]; TbAT1KO, 0.000976563 µM) of the same compound?
The value was 0% and 2%.

What about the “Inhibition (%)” value ([3]; TbAT1KO, 0.00390625 µM) of the same compound?
The value was 5% and 10% and 0%.

And the “Inhibition (%)” value ([3]; TbAT1KO, 0.25 µM)?
The value was 89% and 94% and 60% and 62%.

What about the “Inhibition (%)” value ([3]; TbAT1KO, 64 µM) of the same compound?
The value was 100%.

What about the inhibition at 1 µM ([3]; Trypanosoma brucei, TbAT1KO, 1 µM) of the same compound?
The inhibition at 1 µM was 98%.

And the inhibition at 4 µM ([3]; Trypanosoma brucei, TbAT1KO, 4 µM)?
The inhibition at 4 µM was 99%.

What about the inhibition at 16 µM ([3]; Trypanosoma brucei, TbAT1KO, 16 µM) of the same compound?
Its inhibition at 16 µM is 99%.

And the inhibition at 64 µM ([3]; Trypanosoma brucei, TbAT1KO, 64 µM)?
The inhibition at 64 µM was 99%.

And the EC50 ([3]; Trypanosoma brucei, read-out: EC50 upon AT1-KO)?
Its EC50 is 150 ± 30 nM.

— article PMC6895180 (Nature Communications, 2019)
